Laboratory results reported in patent publication US20140357688A1, “METHOD FOR INHIBITING EZH2 EXPRESSION IN BREAST CANCER CELLS” (Yung Shin Pharm. Ind. Co., Ltd., priority 2013, published 2014).

Experiments:
Src, Raf-1, and MEK = experiment: Western blot of Src, Raf-1 and MEK activation; type: cell-based, human; settings: 3 μM YC-1
Procedure: (A) Cells were pretreated with DMSO (as control), Bay-43-9006 (Bay, 10 μM), farnyesyl thiosalicylic acid (FTS, 10 μM), Src inhibitor I (SrcI, 10 μM), and genistein (Gen, 10 μM), then followed by YC-1 (3 μM) incubation for 6 h. Cells were harvested and lysed for western blot analysis (left, right) and cell viability (middle). The levels of protein expression were quantitated and shown under blots. (B) MDA-MB-468 cells were transfected with shRNA of Raf-1 or Src. After stimulation of 3 μM YC-1 for 4 h, cell protein was subjected to western blot analysis. (C) Cells were incubated with 3 μM YC-1 for indicated time and then lysed for detection of Src, Raf-1, and MEK activation by using specific anti-phosphorylated antibodies. (D) Cells were treated with 3 μM YC-1 for indicated time. Cells were lysed and detected Ras activation by using Raf-RBD conjugated agarose to pull-down Ras-GTP. The total Ras in cell lysate was also detected. […] Cells were lysed and protein expression was determined by western blot analysis. […]
Cells were lysed in PBS containing proteinase inhibitor and phosphatase inhibitors and sonication. Protein concentration was measured using the Bio-Rad protein assay kit (Bio-Rad Laboratories, Hercules, Calif., USA). […] The band intensities were analyzed and quantified by the Multi Gauge software (Fuji Photo Film).

EZH2-c-Cbl-ERK = experiment: Co-immunoprecipitation of c-Cbl and EZH2; type: cell-based, human; settings: 3 μM YC-1 with MG-132; after 1 h, maximum at 2 h
Procedure: (A) c-Cbl knockdown MDA-MB-468 cells were treated with 3 μM YC-1 for 4 h. Cell were harvested for detection of protein expression. (B) Cells were treated with 3 μM YC-1 for indicated time. Cells were collected and c-Cbl phosphorylation was detected. (C) Cells were pretreated with MG-132 (3 μM) or NH4Cl (30 μM) for 1 h followed by 3 μM YC-1 induction for 6 h. (D) Cells were pretreated with MG-132 and followed by 3 μM YC-1 induction for indicated time. Cells were harvested and lysed for immunoprecipitation assay. The association between c-Cbl and EZH2 were determined by western blotting analysis and probed with anti-EZH2 or anti-c-Cbl antibody. Membranes were stripped and reprobed with anti-c-Cbl or anti-EZH2 antibody to check the input. (E) Cells were preincubated with or without PD98059 (10 μM) in the presence of MG-132 for 1 h prior to 2 h-treatment of 3 μM YC-1. Then cells were collected and lysate protein was subjected for the detection of the c-Cbl-EZH2 complexes.
Cells were lysed with RIPA buffer (50 mM Tris-C1, pH 7.5, 1% Igepal CA-630, 150 mM NaCl, 1 mM EDTA, 1 mM Na3VO4, 1 mM NaF, 1 mM PMSF, 10 μg/ml of leupeptin, aprotinin, and pepstatin A) for 30 min at 4° C. One milligram of cell lysate was incubated with anti-EZH2 or anti-c-Cbl antibody and protein A-Sepharose beads, then gently rotated at 4° C. overnight. […]

## OCc1ccc(-c2nn(Cc3ccccc3)c3ccccc23)o1 [YC-1, 3-(5′-hydroxymethyl-2′-furyl)-1-benzyl indazole]
Src, Raf-1, and MEK
  phosphorylated activation of Src, Raf-1, and MEK: time-dependent phosphorylated activation
EZH2-c-Cbl-ERK
  complex formation of EZH2-c-Cbl-ERK: induced the complex formation
